In data set [1] the test system is HCV replicon RNA (GenBank Accession No. AJ242654). The data set is described as follows: HCV Replicon Assay (replicon RNA reduction and/or Fluc reporter signal). Particulars: Hepatitis C virus, 72 h, replicon-containing cells cultured with test compound for up to 3 days. The format is cell-based, Hepatitis C virus. A digest of the protocol:
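Bicistronic replicon-containing cells cultured with compound for up to 3 days, with interferon as positive control. Inhibition quantified by replicon RNA reduction and/or Fluc reporter signal; IC50 values generally derived from replicon RNA reduction.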
For orientation: In antiviral work, replicon cells carry a viral genome segment that copies itself.

Broadly, the melting point is the temperature of the solid-liquid transition. The term IC50 denotes the concentration that inhibits the measured activity by half. Read a high IC50 as weaker potency in that assay. `Cc1ncc2c(C#N)c(-c3ccc(S(=O)(=O)N[C@@H](C)C(F)(F)F)cn3)n(C3CCCC3)c2n1` [Cpd 163, 6-(5-cyano-7-cyclopentyl-2-methyl-7H-pyrrolo[2,3-d]pyrimidin-6-yl)-N-[(2S)-1,1,1-trifluoropropan-2-yl]pyridine-3-sulfonamide] came in with a melting point of 212 to 215 °C. Further, the IC50 in data set [1] lay in the range of 500 to 2000 nM.

With `Cc1ncc2c(C#N)c(-c3ccc(S(=O)(=O)N[C@@H](C)C(F)(F)F)cc3)n(C3CCCC3)c2n1` [Cpd 164, 4-(5-cyano-7-cyclopentyl-2-methyl-7H-pyrrolo[2,3-d]pyrimidin-6-yl)-N-[(2S)-1,1,1-trifluoropropan-2-yl]benzenesulfonamide], the melting point lay in the range of 202 to 204 °C. The IC50 in data set [1] was in the range of 500 to 2000 nM.

The compound `Cc1cc2c(C#N)c(-c3ccc(S(=O)(=O)N[C@@H](C)C(F)(F)F)cn3)n(C3CCC3)c2cn1` [Cpd 165, 6-(3-cyano-1-cyclobutyl-5-methyl-1H-pyrrolo[2,3-c]pyridin-2-yl)-N-[(2S)-1,1,1-trifluoropropan-2-yl]pyridine-3-sulfonamide] returned a melting point of 185 to 188 °C. This compound also had an IC50 in data set [1] of 500 to 2000 nM.

As for `Cc1cc2c(C#N)c(-c3ccc(S(=O)(=O)N[C@H](C)C(F)(F)F)cn3)n(C3CCC3)c2cn1` [Cpd 166, 6-(3-cyano-1-cyclobutyl-5-methyl-1H-pyrrolo[2,3-c]pyridin-2-yl)-N-[(2R)-1,1,1-trifluoropropan-2-yl]pyridine-3-sulfonamide], the melting point was in the range of 195 to 198 °C. Moreover, the IC50 in data set [1] was under 500 nM.

`Cc1cc2c(C#N)c(-c3ccc(S(=O)(=O)N[C@@H](C)C(F)(F)F)cc3)n(C3CCC3)c2cn1` [Cpd 167, 4-(3-cyano-1-cyclobutyl-5-methyl-1H-pyrrolo[2,3-c]pyridin-2-yl)-N-[(2S)-1,1,1-trifluoropropan-2-yl]benzenesulfonamide]: the melting point lay in the range of 188 to 191 °C. The IC50 in data set [1] was under 500 nM.

For `Cc1cc2c(C#N)c(-c3ccc(S(=O)(=O)NC4(C)CC4)cn3)n(C3CCC3)c2cn1` [Cpd 168, 6-(3-cyano-1-cyclobutyl-5-methyl-1H-pyrrolo[2,3-c]pyridine-2-yl)-N-(1-methylcyclopropyl)pyridine-3-sulfonamide], the melting point was in the range of 185 to 190 °C. The IC50 in data set [1] is under 500 nM.

For the compound `C[C@H](NS(=O)(=O)c1ccc(-c2c(C#N)c3cc(F)cnc3n2C2CCC2)nc1)C(F)(F)F` [Cpd 169, 6-(3-cyano-1-cyclobutyl-5-fluoro-1H-pyrrolo[2,3-b]pyridin-2-yl)-N-[(2S)-1,1,1-trifluoropropan-2-yl]pyridine-3-sulfonamide], the melting point fell in the range of 172 to 174 °C. The compound further returned an IC50 in data set [1] of under 500 nM.

In turn, `Cc1cnc2c(C#N)c(-c3ccc(S(=O)(=O)N[C@@H](C)C(F)(F)F)cn3)n(C3CCCC3)c2c1` [Cpd 170, 6-(3-cyano-1-cyclopentyl-6-methyl-1H-pyrrolo[3,2-b]pyridin-2-yl)-N-[(2S)-1,1,1-trifluoropropan-2-yl]pyridine-3-sulfonamide] returned a melting point of 210 to 212 °C. The IC50 in data set [1] is under 500 nM.

`Cc1cnc2c(C#N)c(-c3ccc(S(=O)(=O)N[C@H](C)C(F)(F)F)cn3)n(C3CCCC3)c2c1` [Cpd 171, 6-(3-cyano-1-cyclopentyl-6-methyl-1H-pyrrolo[3,2-b]pyridin-2-yl)-N-[(2R)-1,1,1-trifluoropropan-2-yl]pyridine-3-sulfonamide] gave a melting point of 215 to 217 °C. The compound further displayed an IC50 in data set [1] of under 500 nM.

As to `Cc1cnc2c(C#N)c(-c3ccc(S(=O)(=O)NC4(C(F)(F)F)CC4)cn3)n(C3CCCC3)c2c1` [Cpd 172, 6-(3-cyano-1-cyclopentyl-6-methyl-1H-pyrrolo[3,2-b]pyridin-2-yl)-N-[1-(trifluoromethyl)cyclopropyl]pyridine-3-sulfonamide], the melting point lay within 249 to 251 °C. In data set [1], this compound had an IC50 of under 500 nM.

In turn, `Cc1cnc2c(C#N)c(-c3ccc(S(=O)(=O)NC(C)(C)C(F)(F)F)cn3)n(C3CCCC3)c2c1` [Cpd 173, 6-(3-cyano-1-cyclopentyl-6-methyl-1H-pyrrolo[3,2-b]pyridin-2-yl)-N-(1,1,1-trifluoro-2-methylpropan-2-yl)pyridine-3-sulfonamide] yielded a melting point of 265 to 267 °C. Further, the IC50 in data set [1] was under 500 nM.

As for `Cc1cnc2c(C#N)c(-c3ccc(S(=O)(=O)NC4(C)CC4)cn3)n(C3CCCC3)c2c1` [Cpd 174, 6-(3-cyano-1-cyclopentyl-6-methyl-1H-pyrrolo[3,2-b]pyridin-2-yl)-N-(1-methylcyclopropyl)pyridine-3-sulfonamide], the melting point fell in the range of 215 to 217 °C. Moreover, in data set [1], the IC50 is under 500 nM.

On to `Cc1cnc2c(C#N)c(-c3ccc(S(=O)(=O)NC(C)(C)C)cn3)n(C3CCCC3)c2c1` [Cpd 175, N-tert-butyl-6-(3-cyano-1-cyclopentyl-6-methyl-1H-pyrrolo[3,2-b]pyridin-2-yl)pyridine-3-sulfonamide], for which the melting point was in the range of 267 to 269 °C. Besides, in data set [1], the IC50 is under 500 nM.

For the compound `Cc1cnc2c(C#N)c(-c3ccc(S(=O)(=O)NC(CF)CF)cn3)n(C3CCCC3)c2c1` [Cpd 176, 6-(3-cyano-1-cyclopentyl-6-methyl-1H-pyrrolo[3,2-b]pyridin-2-yl)-N-(1,3-difluoropropan-2-yl)pyridine-3-sulfonamide], the melting point lay within 248 to 249 °C. Further, in data set [1], the IC50 was under 500 nM.

Regarding `Cc1cnc2c(C#N)c(-c3ncc(S(=O)(=O)NC(CF)CF)cn3)n(C3CCCC3)c2c1` [Cpd 177, 2-(3-cyano-1-cyclopentyl-6-methyl-1H-pyrrolo[3,2-b]pyridin-2-yl)-N-(1,3-difluoropropan-2-yl)pyrimidine-5-sulfonamide], the melting point fell in the range of 256 to 258 °C. In data set [1], this compound yielded an IC50 of under 500 nM.

Regarding `Cc1cnc2c(C#N)c(-c3ncc(S(=O)(=O)NC(C)C)cn3)n(C3CCCC3)c2c1` [Cpd 178, 2-(3-cyano-1-cyclopentyl-6-methyl-1H-pyrrolo[3,2-b]pyridin-2-yl)-N-(propan-2-yl)pyrimidine-5-sulfonamide], the melting point lay within 263 to 265 °C. This compound displayed an IC50 in data set [1] of under 500 nM.

`Cc1cnc2c(C#N)c(-c3ncc(S(=O)(=O)N[C@@H](C)C(F)(F)F)cn3)n(C3CCCC3)c2c1` [Cpd 179, 2-(3-cyano-1-cyclopentyl-6-methyl-1H-pyrrolo[3,2-b]pyridin-2-yl)-N-[(2S)-1,1,1-trifluoropropan-2-yl]pyrimidine-5-sulfonamide] displayed a melting point of 262 to 264 °C. Besides, the concentration for half-maximal inhibition (IC50) in data set [1] is under 500 nM.

On to `Cc1cnc2c(C#N)c(-c3ccc(S(=O)(=O)N[C@@H](C)C(F)(F)F)cc3)n(C3CCCC3)c2c1` [Cpd 180, 4-(3-cyano-1-cyclopentyl-6-methyl-1H-pyrrolo[3,2-b]pyridin-2-yl)-N-[(2S)-1,1,1-trifluoropropan-2-yl]benzenesulfonamide], for which the melting point lay in the range of 278 to 279 °C. In data set [1], this compound showed an IC50 of 500 to 2000 nM.

As for `Cc1cnc2c(C#N)c(-c3ccc(S(=O)(=O)N[C@H](C)C(F)(F)F)cc3)n(C3CCCC3)c2c1` [Cpd 181, 4-(3-cyano-1-cyclopentyl-6-methyl-1H-pyrrolo[3,2-b]pyridin-2-yl)-N-[(2R)-1,1,1-trifluoropropan-2-yl]benzenesulfonamide], the melting point lay in the range of 281 to 283 °C. The compound further displayed an IC50 in data set [1] of under 500 nM.

On to `CCc1cnc2c(c1)c(C#N)c(-c1ccc(S(=O)(=O)NC(C)(C)C(F)(F)F)cc1)n2C1CCC1` [Cpd 182, 4-(3-cyano-1-cyclobutyl-5-ethyl-1H-pyrrolo[2,3-b]pyridin-2-yl)-N-(1,1,1-trifluoro-2-methylpropan-2-yl)benzenesulfonamide], for which the melting point is 190 to 195 °C. In data set [1], this compound gave an IC50 of under 500 nM.

Compound `CCc1cnc2c(c1)c(C#N)c(-c1ccc(S(=O)(=O)NC3(C(F)(F)F)CC3)cc1)n2C1CCC1` [Cpd 183, 4-(3-cyano-1-cyclobutyl-5-ethyl-1H-pyrrolo[2,3-b]pyridin-2-yl)-N-[1-(trifluoromethyl)cyclopropyl]benzenesulfonamide] came in with a melting point of 161 to 168 °C. Moreover, in data set [1], the IC50 was 500 to 2000 nM.

`CCc1cnc2c(c1)c(C#N)c(-c1ccc(S(=O)(=O)NC3(C(F)(F)F)CC3)cn1)n2C1CCC1` [Cpd 184, 6-(3-cyano-1-cyclobutyl-5-ethyl-1H-pyrrolo[2,3-b]pyridin-2-yl)-N-[1-(trifluoromethyl)cyclopropyl]pyridine-3-sulfonamide]: the melting point was 216 to 221 °C. Also, in data set [1], the IC50 was under 500 nM.

As for `CCc1cnc2c(c1)c(C#N)c(-c1ccc(S(=O)(=O)NC(C)(C)C)cc1)n2C1CCC1` [Cpd 185, N-tert-butyl-4-(3-cyano-1-cyclobutyl-5-ethyl-1H-pyrrolo[2,3-b]pyridin-2-yl)benzenesulfonamide], the melting point is 190 to 196 °C. The compound also returned an IC50 in data set [1] of under 500 nM.

Consider `CCc1cnc2c(c1)c(C#N)c(-c1ccc(S(=O)(=O)NC3(C)CC3)cc1)n2C1CCC1` [Cpd 187, 4-(3-cyano-1-cyclobutyl-5-ethyl-1H-pyrrolo[2,3-b]pyridin-2-yl)-N-(1-methylcyclopropyl)benzenesulfonamide], for which the melting point lay within 157 to 163 °C. For the same compound, the IC50 in data set [1] was under 500 nM.

For `CCc1cnc2c(c1)c(C#N)c(-c1ccc(S(=O)(=O)NC(CF)CF)cc1)n2C1CCC1` [Cpd 190, 4-(3-cyano-1-cyclobutyl-5-ethyl-1H-pyrrolo[2,3-b]pyridin-2-yl)-N-(1,3-difluoropropan-2-yl)benzenesulfonamide], the melting point was in the range of 165 to 171 °C. The same compound returned an IC50 in data set [1] of under 500 nM.

With `CCc1cnc2c(c1)c(C#N)c(-c1ccc(S(=O)(=O)NC(CF)CF)cn1)n2C1CCC1` [Cpd 191, 6-(3-cyano-1-cyclobutyl-5-ethyl-1H-pyrrolo[2,3-b]pyridin-2-yl)-N-(1,3-difluoropropan-2-yl)pyridine-3-sulfonamide], the melting point lay within 157 to 165 °C. The compound also had an IC50 in data set [1] of 500 to 2000 nM.
